# Assay results from US20260022114A1, “N-(5-SUBSTITUTED-[(1,3,4-THIADIAZOLYL) OR (1,3-THIAZOLYL)](SUBSTITUTED)CARBOXAMIDE COMPOUNDS, PHARMACEUTICAL COMPOSITIONS, AND METHODS OF PREPARING THE AMIDE COMPOUNDS AND OF THEIR USE” (Repare Therapeutics Inc., priority 2022, published 2026).
# pIC50: −log10 of the molar value. “Also recorded” adds a separate entry of the source.
# Columns and labels:
# HCT116 BRCA2−/− cells = experiment: Combination of Compound 113 and PARP inhibitors, cell growth by Incucyte; assay type: cell-based
# Experimental: HCT116-BRCA2−/− (750 cells/well) cells were seeded in a 96-well plate (Costar 3595) and incubated overnight in a tissue culture incubator (5% CO2, 37° C.). The next day, Compound 113 and PARP inhibitors (olaparib or niraparib) were added using a TECAN D300 instrument. Media was replenished with fresh compounds every 3 or 4 days. Cellular growth was monitored using the Incucyte® Live-Cell Analysis System until DMSO-treated wells reached 90% confluency (10-12 days). Cellular confluency was determined using Incucyte® Cell-by-Cell Analysis Software Module and dose-response curves calculated using GraphPad Prism software.
# HCT116 BRCA2−/− tumor = experiment: Polθ-PARP inhibitor combination therapy, tumor volume in mice; assay type: in vivo, SCID-Beige mice; conditions: Compound 113 30 mg/kg SDD suspension p.o. QD with olaparib 25 mg/kg p.o. QD; N=10, p=0.0008 (FIG. 2)
# Experimental: (§1) A spray dried dispersion (SDD) formulation was developed using Compound 113. A 1:1 (w/w) mixture of Compound 113 and HPMCAS (grade H) were fully dissolved in a 4:1 (v/v) mixture of dichloromethane:methanol at a loading of ˜5% solid (w/w). The solution was spray-dried to an amorphous powder which was further dried overnight in a vacuum oven set to 40° C. to remove residual solvents. This SDD material was used for subsequent in vivo dosing in mouse models.
# HCT116-BRCA2−/− (10^7 cells/mouse) cells were injected subcutaneously in SCID-Beige mice. Mice were randomized at a mean tumor volume of 150 mm^3. Compound 113 (30 mg/kg as an SDD suspension in 0.5% methocel+0.02% SLS) and PARP inhibitor olaparib (25 mg/kg) were dosed orally (p.o.) QD throughout the study. Control mice were dosed QD with vehicle solution. Tumor volumes measured (caliper) every 3-4 days. N=10, Welch's t test, *** p=0.0008.
# [1] = tested on: MDAMB436 BRCA1 mutant breast tumor cells; experiment: Polθ-DNA-PK inhibitor combination, cell viability by Incucyte; assay type: cell-based; conditions: in combination with AZD-7648 (DNA-PK inhibitor), 9 days (FIG. 3)
# Experimental: MDAMB436 BRCA1 mutant breast tumor cells were plated at 1500 cells/well in 96 well plates. Compounds were added on day 1 and cells were grown in at 37° C. for 9 days. Cell growth was assessed by the Incucyte assay. Cell viability was normalized to untreated cells.
# [2] = tested on: DLD1 BRCA2 null tumor cells; experiment: as above; assay type: cell-based; conditions: in combination with AZD-7648 (DNA-PK inhibitor), 8 days (FIG. 4)
# Experimental: DLD1 BRCA2 null tumor cells were plated at 1000 cells/well in 96 well plates. Compounds were added on day 1 and cells were grown in at 37° C. for 8 days. Cell growth was assessed by the Incucyte assay. Cell viability was normalized to untreated cells.
# [3] = tested on: DOTC24510 BRCA 2 mutant breast tumor cells; experiment: Compound 113 and radiotherapy, cell viability by Incucyte; assay type: cell-based; conditions: 200 nM Compound 113 with radiotherapy at 0.5 or 1 Gy on days 2, 6, 9; read day 13 (FIG. 5)
# Experimental: DOTC24510 BRCA 2 mutant breast tumor cells were plated in 96 well plates at a density of 1000 cells per well and cultured in tissue culture medium at 37° C. On day 1, cells were treated with either DMSO or 200 nM of Compound 113. Cells were irradiated with 0, 0.25, 0.5 or 1 Gy of radiation on days 2, 6, and 9. Cell viability was assessed by Incucyte assay on day 13.
# DLD1-BRCA2−/− tumors = experiment: Compound 113 and carboplatin, tumor volume in mice; assay type: in vivo, SCID-Beige mice; conditions: Compound 113 45 mg/kg SDD suspension p.o. QD with carboplatin 25 mg/kg i.p. QW; day 35 N=10, p=0.0428 (FIG. 6A, 6B)
# Experimental: as §1
# DLD1-BRCA2−/− (10^7 cells/mouse) cells were injected subcutaneously in SCID-Beige mice. Mice were randomized at a mean tumor volume of 150 mm^3. Compound 113 (45 mg/kg as an SDD suspension in 0.5% methocel+0.02% SLS) was dosed orally (p.o.) QD throughout the study. Carboplatin (25 mg/kg) was dosed i.p. QW. Control mice were dosed QD and QW with corresponding vehicle solutions. Tumor volumes were measured (caliper) every 2-3 days.
# [4] = molecular target: PolQ ATPase enzyme (1-894) (Homo sapiens (Human), UniProt O75417); experiment: Polθ ATPase enzymatic assay (3 nM enzyme concentration), ADP-Glo; assay type: biochemical
# Experimental: Following pre-incubation with inhibitors, DNA (Fork C) at 20 nM and ATP at 100 μM are added to start the reaction. Enzymatic reaction proceeds at rt for 60 min. ATP consumption is measured using the ADP-Glo assay from Promega. Luminescence is read on the Envision and IC50 are determined using the variable slope 4-parameters equation.
# DNA (Fork C) is made by annealing 3 different oligos containing the following sequence of nucleotides:
# Oligos are annealed by heating at 95° C. for 5 min in the following buffer (10 mM Tris-HCl PH7.5, 50 mM NaCl, 1 mM EDTA) and cooled to rt.
# In Table 4, the Compounds were prepared according to Methods described previously using Intermediates described herein, commercially available reagents or intermediates described in the literature. In some cases, the use of protecting groups may be required to prepare Compounds described below.
# Chain of PolQ ATPase enzyme (1-894) (O75417 1-894): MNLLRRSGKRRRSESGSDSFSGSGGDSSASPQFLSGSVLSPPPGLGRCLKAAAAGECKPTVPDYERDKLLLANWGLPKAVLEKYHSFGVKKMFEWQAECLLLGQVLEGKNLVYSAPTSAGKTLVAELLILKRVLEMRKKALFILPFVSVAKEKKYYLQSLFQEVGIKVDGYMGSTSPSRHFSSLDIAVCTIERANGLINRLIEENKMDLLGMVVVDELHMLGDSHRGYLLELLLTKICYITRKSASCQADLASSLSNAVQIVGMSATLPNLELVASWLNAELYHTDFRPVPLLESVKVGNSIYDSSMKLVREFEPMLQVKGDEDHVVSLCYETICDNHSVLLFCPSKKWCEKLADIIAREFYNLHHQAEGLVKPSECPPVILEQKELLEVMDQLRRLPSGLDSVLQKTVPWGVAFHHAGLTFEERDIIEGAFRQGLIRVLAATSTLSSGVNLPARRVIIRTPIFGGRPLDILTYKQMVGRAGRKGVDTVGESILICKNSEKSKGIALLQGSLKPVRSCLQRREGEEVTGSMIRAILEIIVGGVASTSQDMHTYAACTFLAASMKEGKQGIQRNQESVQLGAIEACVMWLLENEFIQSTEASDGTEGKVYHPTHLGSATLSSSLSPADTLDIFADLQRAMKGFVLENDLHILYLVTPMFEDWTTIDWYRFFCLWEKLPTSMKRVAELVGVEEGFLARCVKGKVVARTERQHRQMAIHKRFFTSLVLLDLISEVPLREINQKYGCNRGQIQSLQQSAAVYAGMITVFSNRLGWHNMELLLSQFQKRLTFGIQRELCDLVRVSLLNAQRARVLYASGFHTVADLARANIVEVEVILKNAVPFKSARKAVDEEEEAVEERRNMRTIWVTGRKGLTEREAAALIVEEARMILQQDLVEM
SMILES,"percent viability of HCT116 BRCA2−/− cells, combination versus inhibitors alone (HCT116 BRCA2−/− cells; in combination with niraparib, 10-12 days (FIG. 1B))","percent viability of HCT116 BRCA2−/− cells, combination versus inhibitors alone (HCT116 BRCA2−/− cells; in combination with olaparib, 10-12 days (FIG. 1A))","HCT116 BRCA2−/− tumor volume, combination versus inhibitors alone (HCT116 BRCA2−/− tumor)","MDAMB436 BRCA1 cell viability, combination versus AZD-7648 alone [1]","DLD1 BRCA2 null tumor cell viability, combination versus AZD-7648 alone [2]","DOTC24510 BRCA 2 mutant breast tumor cell viability, combination versus Compound 113 alone [3]","DLD1-BRCA2−/− tumor volume, combination versus monotherapy treatments (DLD1-BRCA2−/− tumors)",pIC50 [4]
"COc1cnc(C(F)F)cc1-c1cc(-c2ccn(C)n2)ncc1C(=O)Nc1nnc(C#CC2CC2)s1 [Compound 113, N-(5-(cyclopropylethynyl)-1,3,4-thiadiazol-2-yl)-2′-(difluoromethyl)-5′-methoxy-6-(1-methyl-1H-pyrazol-3-yl)-[4,4′-bipyridine]-3-carboxamide]",superior at reducing cancer cell viability,superior at reducing cancer cell viability,superior at reducing tumor volume,sensitizes MDAMB436 breast tumor cells to AZD-7648; also recorded: superior at reducing MDAMB436 BRCA1 cell viability,sensitizes DLD1 BRCA2 null tumor cells to AZD-7648; also recorded: superior at reducing DLD1 BRCA2 null tumor cell viability,sensitizes DOTC24510 breast tumor cells to irradiation; also recorded: superior at reducing DOTC24510 BRCA 2 mutant breast tumor cell viability,sensitizes DLD1 BRCA2 null tumors to carboplatin; also recorded: superior at reducing tumor volume in mice,–
"COc1ccc(F)cc1-c1cnccc1C(=O)Nc1nnc([C@@H]2C[C@H]2c2nc3ccccc3n2C)s1 (racemic) [Compound 4, 3-(5-fluoro-2-methoxyphenyl)-N-(5-((1R,2R)-2-(1-methyl-1H-benzo[d]imidazol-2-yl)cyclopropyl)-1,3,4-thiadiazol-2-yl)isonicotinamide]",–,–,–,–,–,–,–,7.04
